In paper PMC8125568 (2021):

Key:
[1] = system: AU-RNA (poly A—poly U) (RNA, polymer) A/U; experiment: circular dichroism titration; conditions: Na+ (sodium cacodylate, I = 0.05 M); pH 7.0, room temperature; RNA 20 µM; CD spectrum somewhat changed
[2] = system: AU-RNA (poly A—poly U) (RNA, polymer) A/U; experiment: UV thermal denaturation, 260 nm; conditions: Na+ (sodium cacodylate, I = 0.05 M), error ± 0.5, per base
[3] = system: AT-DNA (poly dAdT—poly dAdT) (DNA, polymer) AT; experiment: fluorimetric titration, Scatchard; conditions: Na+ (sodium cacodylate, I = 0.05 M); pH 7.0, 25 °C, 0.04% DMSO; n fixed 0.2; polynucleotide as phosphates; per base
[4] = system: AU-RNA (poly A—poly U) (RNA, polymer) A/U; experiment: fluorimetric titration, Scatchard; conditions: Na+ (sodium cacodylate, I = 0.05 M); pH 7.0, 25 °C, 0.04% DMSO; n fixed 0.2; polynucleotide as phosphates; per base

## CC12SC(C(=O)NCCN)=CC1=C1CCCC1=C1C=C(C(=O)NCCN)SC12C (stereo not drawn)
[1]
  binding: weak

## CC12SC(C(=O)NCCNC(=O)c3ccc4ccc5cccc6ccc3c4c56)=CC1=C1CCCC1=C1C=C(C(=O)NCCNC(=O)c3ccc4ccc5cccc6ccc3c4c56)SC12C (stereo not drawn)
[2]; pH 7.0, 4% DMSO, r = 0.3, no stabilisation
  ∆Tm: 0.3 °C

## Cc1sc(C(=O)NCCN)cc1C1=C(c2cc(C(=O)NCCN)sc2C)CCC1
[2]; pH 7.0, r = 0.3
  ∆Tm: −0.7 °C

## Cc1sc(C(=O)NCCNC(=O)c2ccc3ccc4cccc5ccc2c3c45)cc1C1=C(c2cc(C(=O)NCCNC(=O)c3ccc4ccc5cccc6ccc3c4c56)sc2C)CCC1
[2]; pH 7.0, 0.5% DMSO, r = 0.3, RNA 20 µM, two transitions (first/second)
  ∆Tm: 0/23.4 °C
[3]
  logKs: 6.3 log M^-1
[4]
  logKs: 6.1 log M^-1
